One experiment has as its target T1, DNA polymerase I (Escherichia coli, UniProt P00582).
T1 construct: purchased New England Biolabs M0209
Kind of experiment: DPE-PCR assay with purified DNA polymerase, ddCTP termination. It is filed as biochemical. As to conditions: dNTP mix with 50 μM ddCTP instead of 50 μM dCTP; 2×10^−9 U DNA polymerase I; 37° C., 20 minutes. How it is done: DNA Pol I (NEB cat #M0209L), Klenow (NEB cat #M0210S) and Klenow exo(−) (NEB cat #M0212S) were diluted to the indicated U/μL stock in Tris EDTA (T.E.) pH 8.0. To begin, 2 μL of DNA polymerase stock at each concentration were placed into a 50 μL polymerase assay mixture containing the following components: 50 μM dNTP, 20 mM Tris pH 8.0, 10 mM ammonium sulfate, 10 mM potassium chloride, 2 mM magnesium sulfate, 1% BSA, 0.1% Triton, 0.1% Tween, and 0.001 μM pre-annealed DNA substrate. Reactions were vortexed briefly and placed at 37° C. for 20 minutes. After 20 minutes, 3 μL of each reaction were immediately placed into a quantitative PCR (qPCR) reaction. Detection by qPCR
The qPCR reaction master mix was prepared using the following components: LightCycler 480 Master Mix (Roche cat #04707494001), 333 nM of each primer, 166 nM Target probe (FAM), 166 nM internal control probe (TxRed), and 1.2 U of UDG (Bioline cat #BIO-20744). As a tool to monitor PCR inhibition, each qPCR reaction also included 40 copies of competitive internal control DNA. […]

Experiment [1] concerns E. coli-derived DNA polymerase activity. Briefly: Bead lysis-coupled DPE-PCR, ddCTP termination of microbial DNA polymerase (E. coli). It is filed as biochemical, Escherichia coli. As to conditions: reaction mix with 50 μM ddCTP instead of dCTP; crude bead mill lysate. The procedure: The qPCR reaction master mix was prepared using the following components: LightCycler 480 Master Mix (Roche cat #04707494001), 333 nM of each primer, 166 nM Target probe (FAM), 166 nM internal control probe (TxRed), and 1.2 U of UDG (Bioline cat #BIO-20744). As a tool to monitor PCR inhibition, each qPCR reaction also included 40 copies of competitive internal control DNA. For each qPCR reaction, 3 μL of DNA polymerase reaction were added to 27 μL of master mix and a two-step qPCR was run on a SmartCycler (Cepheid, Sunnyvale Calif.) as follows: Initial incubation of 40° C. for 10 minutes and 50° C. for 10 minutes and at 95° C. for 5 minutes (to activate Taq), followed by 45 cycles of 5 s denaturation at 95° C. and 20 s annealing/extension at 65° C. Cycle threshold (Ct) values were generated automatically by the SmartCycler software using 2nd derivative analysis of the emerging qPCR curves.
S. aureus and E. coli cultures were grown to an OD600 of 1.0±0.2 (approximately 1×10^9 cfu/mL.) For each organism, 1 mL of culture was pelleted and washed three times in T.E. Bacterial suspensions were serially diluted in T.E., and 5 μL of each stock were added to bead lysis-reactions containing 50 μL of lysis-reaction buffer. […]

T1 sequence (P00582 whole entry): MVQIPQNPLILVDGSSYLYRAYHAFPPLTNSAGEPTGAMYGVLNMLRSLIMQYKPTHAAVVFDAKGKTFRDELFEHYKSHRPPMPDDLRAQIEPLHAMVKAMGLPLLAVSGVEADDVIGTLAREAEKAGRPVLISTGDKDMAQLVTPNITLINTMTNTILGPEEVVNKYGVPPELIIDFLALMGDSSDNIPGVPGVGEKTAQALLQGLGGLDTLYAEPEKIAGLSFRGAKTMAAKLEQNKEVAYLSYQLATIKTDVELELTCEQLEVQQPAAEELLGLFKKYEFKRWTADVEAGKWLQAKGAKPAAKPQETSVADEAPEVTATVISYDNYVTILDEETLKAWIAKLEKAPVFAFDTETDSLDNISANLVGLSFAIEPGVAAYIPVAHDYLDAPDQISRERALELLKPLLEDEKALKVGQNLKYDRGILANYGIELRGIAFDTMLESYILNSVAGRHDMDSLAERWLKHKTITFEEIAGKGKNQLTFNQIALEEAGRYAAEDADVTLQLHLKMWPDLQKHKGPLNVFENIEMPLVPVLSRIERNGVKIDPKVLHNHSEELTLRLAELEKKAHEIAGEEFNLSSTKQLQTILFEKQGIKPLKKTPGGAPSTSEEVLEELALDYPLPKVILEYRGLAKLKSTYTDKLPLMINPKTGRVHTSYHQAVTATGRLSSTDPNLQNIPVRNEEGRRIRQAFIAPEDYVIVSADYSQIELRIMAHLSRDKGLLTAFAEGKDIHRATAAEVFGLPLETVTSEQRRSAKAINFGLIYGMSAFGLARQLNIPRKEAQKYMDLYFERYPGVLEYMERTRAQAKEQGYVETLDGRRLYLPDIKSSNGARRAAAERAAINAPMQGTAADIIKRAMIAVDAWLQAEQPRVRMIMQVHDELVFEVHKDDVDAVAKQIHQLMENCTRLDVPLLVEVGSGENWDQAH

On to `Nc1ccn([C@H]2CC[C@@H](COP(=O)(O)OP(=O)(O)OP(=O)(O)O)O2)c(=O)n1` [ddCTP, dideoxyCTP], for which, on DNA polymerase I, the “DPE-PCR assay signal (DNA polymerase extension activity)” value was “eliminates signal generated by DNA polymerase I”. For the same compound, the “DPE-PCR signal derived from E. coli cfu spikes” value in experiment [1] was “blocked the generation of signal derived from E. coli cfu spikes”.

The values are drawn from US20150004617A1, “DNA Polymerase Activity Assays and Methods Enabling Determination of Viable Microbes” (Zeus Scientific, Inc., priority 2012, published 2015).
